Reference: US20220323533A1, “COMPOSITION FOR PREVENTING, INHIBITING OR TREATING INFECTION OF CORONAVIRUS” (priority 2021, published 2022)

Assays:
[1] = system: Vero cells
[2] = system: SARS-CoV-2; format: cell-based

Propolis [Comparative Example 1]
CC50 [1]: >500 µg/mL

OC[C@H]1NC[C@H](O)[C@@H](O)[C@@H]1O [Comparative Example 2, 1-Deoxynojirimycin]
CC50 [1]: >500 µg/mL | IC50 ([2]; SARS-CoV-2 (0.0125 MOI) in Vero cells, 24 hours, N protein immunofluorescence, highest concentration 500 μg/ml, two repeated experiments): >500 µg/mL | inhibition of infection with SARS-CoV-2 (in words) ([2]; Vero cells, up to 500 μg/ml): did not inhibit infection
